This note sets out measurements from patent US7994156B2 (priority 2007, dated 2011).

Experiment [1] has as its target T1, dopamine (DA) reuptake in synaptosomes (Rattus norvegicus, UniProt P23977).
T1 construct: in synaptosomes as described in WO 97/16451; from tissue
Description: Inhibition of DA reuptake in synaptosomes. It is filed as biochemical. Conditions: 3H-DA, read-out: DA-uptake IC50. Here is the method: (§1) A compound of the invention was tested for its ability to inhibit the reuptake of the monoamine neurotransmitters dopamine (DA) noradrenaline (NA) and serotonine (5-HT) in synaptosomes as described in WO 97/16451.
(§2) The test values are given as IC50 (the concentration (μM) of the test substance which inhibits the specific binding of ^3H-DA, ^3H-NA, or ^3H-5-HT by 50%).

For experiment [2], the target named is T2, serotonine (5-HT) reuptake in synaptosomes (Rattus norvegicus, UniProt P31652).
T2 construct: serotonine (5-HT) in synaptosomes as described in WO 97/16451; from tissue
T2 sequence (P31652 whole entry): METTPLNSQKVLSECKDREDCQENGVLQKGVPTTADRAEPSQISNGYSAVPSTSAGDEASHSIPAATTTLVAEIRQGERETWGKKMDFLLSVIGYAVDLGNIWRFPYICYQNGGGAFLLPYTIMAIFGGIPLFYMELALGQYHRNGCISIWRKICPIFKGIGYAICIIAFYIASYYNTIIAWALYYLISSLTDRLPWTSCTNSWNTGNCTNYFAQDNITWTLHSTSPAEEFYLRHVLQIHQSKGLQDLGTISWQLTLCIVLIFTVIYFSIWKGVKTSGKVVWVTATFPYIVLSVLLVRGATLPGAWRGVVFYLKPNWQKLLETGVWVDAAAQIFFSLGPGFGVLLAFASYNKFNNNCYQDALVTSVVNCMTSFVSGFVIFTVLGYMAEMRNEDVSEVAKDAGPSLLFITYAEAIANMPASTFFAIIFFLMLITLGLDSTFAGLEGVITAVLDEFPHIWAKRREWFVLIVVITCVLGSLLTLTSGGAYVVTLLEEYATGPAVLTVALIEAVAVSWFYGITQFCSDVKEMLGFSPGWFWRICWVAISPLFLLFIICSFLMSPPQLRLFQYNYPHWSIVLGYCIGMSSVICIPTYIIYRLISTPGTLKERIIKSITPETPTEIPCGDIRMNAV
Description: Inhibition of 5-HT reuptake in synaptosomes. It is filed as biochemical. Conditions: 3H-5-HT, read-out: 5-HT-uptake IC50. Here is the method:
as §1, §2

For experiment [3], the target named is T3, α7-subtype of nicotinic receptors (Rattus norvegicus, UniProt Q05941).
T3 construct: Cerebral cortices from male Wistar rats (150-250 g) are homogenised; from tissue; host or cells: cerebral cortex of male Wistar rats, washed membrane pellet
T3 sequence (Q05941 23-502): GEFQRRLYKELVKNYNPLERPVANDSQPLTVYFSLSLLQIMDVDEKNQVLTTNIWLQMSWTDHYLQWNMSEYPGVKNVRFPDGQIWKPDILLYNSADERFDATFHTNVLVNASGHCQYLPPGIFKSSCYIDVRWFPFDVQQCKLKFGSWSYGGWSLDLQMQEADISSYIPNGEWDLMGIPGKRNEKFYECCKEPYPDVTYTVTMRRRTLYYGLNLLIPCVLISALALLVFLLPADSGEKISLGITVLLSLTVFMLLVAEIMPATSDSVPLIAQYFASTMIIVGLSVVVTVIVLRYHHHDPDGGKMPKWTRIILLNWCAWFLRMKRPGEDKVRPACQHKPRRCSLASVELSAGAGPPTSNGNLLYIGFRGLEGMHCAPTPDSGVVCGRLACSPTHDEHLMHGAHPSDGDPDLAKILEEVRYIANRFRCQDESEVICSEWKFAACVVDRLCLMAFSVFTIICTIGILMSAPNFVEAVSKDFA
Description: biochemical. It is filed as binding.

T1 sequence (P23977 whole entry): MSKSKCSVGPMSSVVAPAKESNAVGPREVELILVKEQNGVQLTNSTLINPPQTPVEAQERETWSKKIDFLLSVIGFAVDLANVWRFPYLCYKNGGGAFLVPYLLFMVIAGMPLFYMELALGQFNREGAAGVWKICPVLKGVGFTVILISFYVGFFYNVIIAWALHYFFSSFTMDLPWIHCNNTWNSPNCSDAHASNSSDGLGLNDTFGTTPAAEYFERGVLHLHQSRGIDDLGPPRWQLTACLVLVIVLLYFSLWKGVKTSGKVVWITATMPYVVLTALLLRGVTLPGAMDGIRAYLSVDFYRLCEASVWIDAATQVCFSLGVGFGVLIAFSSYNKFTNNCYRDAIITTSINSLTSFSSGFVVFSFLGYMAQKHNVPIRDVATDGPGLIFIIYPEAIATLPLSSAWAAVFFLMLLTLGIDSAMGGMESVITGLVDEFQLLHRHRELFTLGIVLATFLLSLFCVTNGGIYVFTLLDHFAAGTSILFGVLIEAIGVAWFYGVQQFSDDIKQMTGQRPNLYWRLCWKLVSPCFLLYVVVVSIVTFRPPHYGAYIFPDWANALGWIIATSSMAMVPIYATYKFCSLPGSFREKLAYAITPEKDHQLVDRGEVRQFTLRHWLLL

For `O=C(Oc1ccc(N=Nc2ccccc2)cc1)N1CCN2CCC1CC2` [1,4-Diaza-bicyclo[3.2.2]nonane-4-carboxylic acid 4-phenylazo-phenyl ester], the IC50 was 32 nM in experiment [1], 13000 nM in experiment [2] and 1600 nM in experiment [3].

For orientation: IC50 means the concentration that inhibits the measured activity by half.
